{"source": "patent US20250108038A1", "about": "(priority 2023, published 2025)", "tested_on": "HEK293 uptake transporter overexpressing and control cells", "test": "Resazurin-based cytotoxicity assay", "experimental": "The cells were plated on 96-well plates. Prior to the experiment the medium was removed, and cells were rinsed with 2×100 μL of the respective buffer for uptake transporter transfected and control cell lines.", "key": {"[1]": {"conditions": "MATE1 assay, 5.00 μM, incubation 30 + 3 min"}, "[2]": {"conditions": "MATE1 assay, 10.00 μM, incubation 30 + 3 min"}, "[3]": {"conditions": "MATE1 assay, 20.00 μM, incubation 30 + 3 min"}, "[4]": {"conditions": "MATE1 assay, 30.00 μM, incubation 30 + 3 min"}, "[5]": {"conditions": "MATE2-K assay, 5.00 μM, incubation 30 + 1 min"}, "[6]": {"conditions": "MATE2-K assay, 10.00 μM, incubation 30 + 1 min"}, "[7]": {"conditions": "MATE2-K assay, 20.00 μM, incubation 30 + 1 min"}, "[8]": {"conditions": "MATE2-K assay, 30.00 μM, incubation 30 + 1 min"}, "[9]": {"conditions": "OAT1 assay, 5.00 μM, incubation 30 + 2 min"}, "[10]": {"conditions": "OAT1 assay, 10.00 μM, incubation 30 + 2 min"}, "[11]": {"conditions": "OAT1 assay, 20.00 μM, incubation 30 + 2 min"}, "[12]": {"conditions": "OAT1 assay, 30.00 μM, incubation 30 + 2 min"}, "[13]": {"conditions": "OAT3 assay, 5.00 μM, incubation 30 + 1 min"}, "[14]": {"conditions": "OAT3 assay, 10.00 μM, incubation 30 + 1 min"}, "[15]": {"conditions": "OAT3 assay, 20.00 μM, incubation 30 + 1 min"}, "[16]": {"conditions": "OAT3 assay, 30.00 μM, incubation 30 + 1 min"}, "[17]": {"conditions": "OATP1B1 assay, 5.00 μM, incubation 30 + 3 min"}, "[18]": {"conditions": "OATP1B1 assay, 10.00 μM, incubation 30 + 3 min"}, "[19]": {"conditions": "OATP1B1 assay, 20.00 μM, incubation 30 + 3 min"}, "[20]": {"conditions": "OATP1B1 assay, 30.00 μM, incubation 30 + 3 min"}, "[21]": {"conditions": "OATP1B3 assay, 5.00 μM, incubation 30 + 2 min"}, "[22]": {"conditions": "OATP1B3 assay, 10.00 μM, incubation 30 + 2 min"}, "[23]": {"conditions": "OATP1B3 assay, 20.00 μM, incubation 30 + 2 min"}, "[24]": {"conditions": "OATP1B3 assay, 30.00 μM, incubation 30 + 2 min"}, "[25]": {"conditions": "OCT1 assay, 5.00 μM, incubation 30 + 3 min"}, "[26]": {"conditions": "OCT1 assay, 10.00 μM, incubation 30 + 3 min"}, "[27]": {"conditions": "OCT1 assay, 20.00 μM, incubation 30 + 3 min"}, "[28]": {"conditions": "OCT1 assay, 30.00 μM, incubation 30 + 3 min"}, "[29]": {"conditions": "OCT2 assay, 5.00 μM, incubation 30 + 1 min"}, "[30]": {"conditions": "OCT2 assay, 10.00 μM, incubation 30 + 1 min"}, "[31]": {"conditions": "OCT2 assay, 20.00 μM, incubation 30 + 1 min"}, "[32]": {"conditions": "OCT2 assay, 30.00 μM, incubation 30 + 1 min"}}, "data": [{"smiles": "OC1(c2ccc(Cl)cc2)c2ccccc2C2=NCCN21", "note": "(stereo not drawn) [Compound A, 5-(4-chlorophenyl)-2,3-dihydroimidazo[1,2-b]isoindol-5-ol, reference compound]", "values": [{"measurement": "Cell viability (cytotoxic effect)", "setting": "HEK293-MATE1-LV, -MATE2-K-LV, -OAT1-LV, -OAT3-LV, -OATP1B1-LV, -OATP1B3-LV, -OCT1-LV, -OCT2-LV and control cells", "result": "did not reduce the cell viability"}, {"measurement": "Relative cell viability, control cells", "setting": "[1]", "result": "99.21 ± 1.16 % of control"}, {"measurement": "Relative cell viability, transfected cells", "setting": "[1]", "result": "100.44 ± 1.23 % of control"}, {"measurement": "Relative cell viability, control cells", "setting": "[2]", "result": "99.15 ± 1.14 % of control"}, {"measurement": "Relative cell viability, transfected cells", "setting": "[2]", "result": "100.94 ± 1.13 % of control"}, {"measurement": "Relative cell viability, control cells", "setting": "[3]", "result": "99.30 ± 1.01 % of control"}, {"measurement": "Relative cell viability, transfected cells", "setting": "[3]", "result": "101.82 ± 1.13 % of control"}, {"measurement": "Relative cell viability, control cells", "setting": "[4]", "result": "99.32 ± 1.20 % of control"}, {"measurement": "Relative cell viability, transfected cells", "setting": "[4]", "result": "100.38 ± 1.18 % of control"}, {"measurement": "Relative cell viability, control cells", "setting": "[5]", "result": "98.30 ± 0.72 % of control"}, {"measurement": "Relative cell viability, transfected cells", "setting": "[5]", "result": "100.17 ± 1.24 % of control"}, {"measurement": "Relative cell viability, control cells", "setting": "[6]", "result": "101.55 ± 0.74 % of control"}, {"measurement": "Relative cell viability, transfected cells", "setting": "[6]", "result": "99.35 ± 0.57 % of control"}, {"measurement": "Relative cell viability, control cells", "setting": "[7]", "result": "99.74 ± 0.77 % of control"}, {"measurement": "Relative cell viability, transfected cells", "setting": "[7]", "result": "98.93 ± 1.00 % of control"}, {"measurement": "Relative cell viability, control cells", "setting": "[8]", "result": "99.57 ± 0.77 % of control"}, {"measurement": "Relative cell viability, transfected cells", "setting": "[8]", "result": "95.00 ± 1.36 % of control"}, {"measurement": "Relative cell viability, control cells", "setting": "[9]", "result": "99.60 ± 2.60 % of control"}, {"measurement": "Relative cell viability, transfected cells", "setting": "[9]", "result": "101.06 ± 0.56 % of control"}, {"measurement": "Relative cell viability, control cells", "setting": "[10]", "result": "102.26 ± 1.66 % of control"}, {"measurement": "Relative cell viability, transfected cells", "setting": "[10]", "result": "100.28 ± 0.26 % of control"}, {"measurement": "Relative cell viability, control cells", "setting": "[11]", "result": "103.10 ± 2.01 % of control"}, {"measurement": "Relative cell viability, transfected cells", "setting": "[11]", "result": "98.34 ± 0.33 % of control"}, {"measurement": "Relative cell viability, control cells", "setting": "[12]", "result": "102.66 ± 2.43 % of control"}, {"measurement": "Relative cell viability, transfected cells", "setting": "[12]", "result": "93.28 ± 2.26 % of control"}, {"measurement": "Relative cell viability, control cells", "setting": "[13]", "result": "98.41 ± 1.36 % of control"}, {"measurement": "Relative cell viability, transfected cells", "setting": "[13]", "result": "97.17 ± 0.40 % of control"}, {"measurement": "Relative cell viability, control cells", "setting": "[14]", "result": "96.14 ± 2.42 % of control"}, {"measurement": "Relative cell viability, transfected cells", "setting": "[14]", "result": "98.73 ± 0.68 % of control"}, {"measurement": "Relative cell viability, control cells", "setting": "[15]", "result": "95.85 ± 2.05 % of control"}, {"measurement": "Relative cell viability, transfected cells", "setting": "[15]", "result": "97.97 ± 0.89 % of control"}, {"measurement": "Relative cell viability, control cells", "setting": "[16]", "result": "98.11 ± 1.29 % of control"}, {"measurement": "Relative cell viability, transfected cells", "setting": "[16]", "result": "99.16 ± 0.66 % of control"}, {"measurement": "Relative cell viability, control cells", "setting": "[17]", "result": "95.83 ± 0.85 % of control"}, {"measurement": "Relative cell viability, transfected cells", "setting": "[17]", "result": "101.07 ± 0.61 % of control"}, {"measurement": "Relative cell viability, control cells", "setting": "[18]", "result": "93.21 ± 2.18 % of control"}, {"measurement": "Relative cell viability, transfected cells", "setting": "[18]", "result": "102.28 ± 0.69 % of control"}, {"measurement": "Relative cell viability, control cells", "setting": "[19]", "result": "96.00 ± 0.81 % of control"}, {"measurement": "Relative cell viability, transfected cells", "setting": "[19]", "result": "99.79 ± 0.88 % of control"}, {"measurement": "Relative cell viability, control cells", "setting": "[20]", "result": "96.60 ± 2.23 % of control"}, {"measurement": "Relative cell viability, transfected cells", "setting": "[20]", "result": "98.92 ± 1.07 % of control"}, {"measurement": "Relative cell viability, control cells", "setting": "[21]", "result": "96.08 ± 0.72 % of control"}, {"measurement": "Relative cell viability, transfected cells", "setting": "[21]", "result": "99.30 ± 0.80 % of control"}, {"measurement": "Relative cell viability, control cells", "setting": "[22]", "result": "93.50 ± 0.99 % of control"}, {"measurement": "Relative cell viability, transfected cells", "setting": "[22]", "result": "99.16 ± 1.10 % of control"}, {"measurement": "Relative cell viability, control cells", "setting": "[23]", "result": "98.24 ± 0.33 % of control"}, {"measurement": "Relative cell viability, transfected cells", "setting": "[23]", "result": "99.23 ± 0.43 % of control"}, {"measurement": "Relative cell viability, control cells", "setting": "[24]", "result": "100.55 ± 0.31 % of control"}, {"measurement": "Relative cell viability, transfected cells", "setting": "[24]", "result": "99.58 ± 0.58 % of control"}, {"measurement": "Relative cell viability, control cells", "setting": "[25]", "result": "95.85 ± 5.15 % of control"}, {"measurement": "Relative cell viability, transfected cells", "setting": "[25]", "result": "105.13 ± 8.07 % of control"}, {"measurement": "Relative cell viability, control cells", "setting": "[26]", "result": "99.88 ± 5.10 % of control"}, {"measurement": "Relative cell viability, transfected cells", "setting": "[26]", "result": "106.01 ± 8.03 % of control"}, {"measurement": "Relative cell viability, control cells", "setting": "[27]", "result": "98.58 ± 5.65 % of control"}, {"measurement": "Relative cell viability, transfected cells", "setting": "[27]", "result": "105.82 ± 8.04 % of control"}, {"measurement": "Relative cell viability, control cells", "setting": "[28]", "result": "102.27 ± 5.38 % of control"}, {"measurement": "Relative cell viability, transfected cells", "setting": "[28]", "result": "109.22 ± 8.33 % of control"}, {"measurement": "Relative cell viability, control cells", "setting": "[29]", "result": "95.32 ± 3.75 % of control"}, {"measurement": "Relative cell viability, transfected cells", "setting": "[29]", "result": "96.41 ± 1.41 % of control"}, {"measurement": "Relative cell viability, control cells", "setting": "[30]", "result": "93.96 ± 4.78 % of control"}, {"measurement": "Relative cell viability, transfected cells", "setting": "[30]", "result": "97.59 ± 1.08 % of control"}, {"measurement": "Relative cell viability, control cells", "setting": "[31]", "result": "96.81 ± 3.07 % of control"}, {"measurement": "Relative cell viability, transfected cells", "setting": "[31]", "result": "98.80 ± 0.86 % of control"}, {"measurement": "Relative cell viability, control cells", "setting": "[32]", "result": "96.68 ± 2.77 % of control"}, {"measurement": "Relative cell viability, transfected cells", "setting": "[32]", "result": "98.11 ± 0.97 % of control"}, {"measurement": "decrease of the relative cell viability compared to solvent (DMSO)", "setting": "all uptake transporter overexpressing and control cells", "result": "less than 20%"}]}]}
